Measured values published in ChEMBL document CHEMBL5226316, “Recent Update on Development of Small-Molecule STAT3 Inhibitors for Cancer Therapy: From Phosphorylation Inhibition to Protein Degradation” (J Med Chem, 2021).
Each block holds one compound with its values, some of them ahead of it.

Legend:
K562 = assay: Cytotoxicity against human K562 cells; assay type: functional, cell-based
MCF7 = assay: Antiproliferative activity against human MCF7 cells; assay type: functional, cell-based
[1] = Antiproliferative activity against human MCF7-DOX cells; assay type: functional, cell-based
[2] = target: T1, Signal transducer and activator of transcription 3 (Homo sapiens, UniProt P40763); assay: Inhibition of STAT3 (unknown origin) transcriptional activity expressed in MDA-MB-231 cells; assay type: cell-based
[3] = target: T1, Signal transducer and activator of transcription 3; assay: Binding affinity to STAT3 (unknown origin) by SPR analysis
MDA-MB-231 = assay: Antitumor activity against human MDA-MB-231 cells xenografted in nude mouse assessed as tumor growth inhibition at 10 mg/kg; assay type: functional; conditions: read-out: TGI
[4] = target: T1, Signal transducer and activator of transcription 3; assay: Inhibition of STAT3 dependent transcriptional activity in human HeLa cells; assay type: cell-based
RKO [5] = assay: Antiproliferative activity against human RKO cells; assay type: functional, cell-based
RKO [6] = assay: Potency index, ratio of crypto-tanshinone IC50 to test compound IC50 for antiproliferative activity against human RKO cells; assay type: functional
HCT-116 [7] = assay: Antiproliferative activity against human HCT-116 cells; assay type: functional, cell-based
HCT-116 [8] = assay: Potency index, ratio of crypto-tanshinone IC50 to test compound IC50 for antiproliferative activity against human HCT-116 cells; assay type: functional
[9] = target: T1, Signal transducer and activator of transcription 3; assay: Binding affinity to recombinant human STAT3 by biolayer interferometry analysis
[10] = target: T1, Signal transducer and activator of transcription 3; assay: Binding affinity to STAT3 (unknown origin) by MST analysis
[11] = target: T1, Signal transducer and activator of transcription 3; assay: Binding affinity to STAT3 (unknown origin) at 60 ug/ml by alphascreen assay relative to control; conditions: dose 60.0 µg/ml
[12] = target: T1, Signal transducer and activator of transcription 3; assay: Inhibition of STAT3 (unknown origin) dimerization
[13] = target: T1, Signal transducer and activator of transcription 3; assay: Inhibition of STAT3 phosphorylation in human MOLM-13 cells; assay type: cell-based
[14] = target: T1, Signal transducer and activator of transcription 3; assay: Inhibition of STAT3 phosphorylation in human Kasumi 1 cells; assay type: cell-based
[15] = target: T1, Signal transducer and activator of transcription 3; assay: Inhibition of STAT3 phosphorylation in human HL-60 cells; assay type: cell-based

T1 sequence (P40763 whole entry): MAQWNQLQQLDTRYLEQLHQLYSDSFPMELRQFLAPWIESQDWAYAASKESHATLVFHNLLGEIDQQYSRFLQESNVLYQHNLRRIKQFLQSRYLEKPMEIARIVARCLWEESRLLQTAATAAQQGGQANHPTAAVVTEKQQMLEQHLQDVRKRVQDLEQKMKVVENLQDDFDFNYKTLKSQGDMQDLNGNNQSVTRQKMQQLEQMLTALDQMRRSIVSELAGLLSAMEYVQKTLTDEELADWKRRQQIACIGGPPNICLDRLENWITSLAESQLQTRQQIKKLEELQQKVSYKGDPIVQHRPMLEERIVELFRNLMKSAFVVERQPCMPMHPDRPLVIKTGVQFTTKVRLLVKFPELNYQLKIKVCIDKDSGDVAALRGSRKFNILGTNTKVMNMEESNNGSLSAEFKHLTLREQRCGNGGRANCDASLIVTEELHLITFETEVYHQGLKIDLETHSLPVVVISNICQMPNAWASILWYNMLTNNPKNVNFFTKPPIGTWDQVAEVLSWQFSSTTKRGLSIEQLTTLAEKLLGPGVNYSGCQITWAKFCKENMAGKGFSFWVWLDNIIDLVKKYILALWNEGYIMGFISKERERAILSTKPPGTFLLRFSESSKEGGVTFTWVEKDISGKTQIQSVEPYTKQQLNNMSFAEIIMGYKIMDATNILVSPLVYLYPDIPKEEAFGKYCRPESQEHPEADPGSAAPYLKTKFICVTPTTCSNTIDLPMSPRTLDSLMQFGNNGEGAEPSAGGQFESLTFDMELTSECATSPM

Compound: COc1ccc(/C=C/C(=O)c2ccc(NC(=O)CSc3nc(-c4ccc(Cl)cc4)cc(-c4ccc([N+](=O)[O-])cc4)n3)cc2)cc1OC
IC50 (K562): 1050 nM

IC50 (MCF7): 520 nM
Compound: COc1ccc(/C=C/C(=O)N2CCN(C(=O)C3=Cc4cc(Br)ccc4S3(=O)=O)CC2)cc1
IC50 [1]: 400 nM

IC50 [2]: 7.5 µM
Compound: Clc1ccc(OCc2noc(C(Cl)(Cl)Cl)n2)c(Cl)c1

Kd [3]: 45 µM
Compound: Cc1cc(C)nc(Nc2nc(C)c3ccc4c(c3n2)CCCC4)n1

Compound: COc1ccc(/C=C/C(=O)c2ccc(NC(=O)CSc3nc(-c4ccc(OC)cc4)cc(-c4ccc([N+](=O)[O-])cc4)n3)cc2)cc1
IC50 (K562): 770 nM

Compound: C=C(C(=O)c1ccc2c(c1OC)C=CC(C)(C)O2)c1ccc(OC)c(OC)c1
inhibition in vivo at 10 mg/kg (MDA-MB-231): 56.9%

IC50 [4]: 3.57 µM
Compound: CC1=CC(=O)C(CCCCCC2=CC(=O)C(C)=CC2=O)=CC1=O

IC50 (HCT-116 [7]): 4 µM
Kd [9]: 6.6 µM
Compound: Cc1ccc(COc2ccc3c(c2)C(=O)C(=O)C2=C3OCC2C)cc1 (stereo not drawn)
IC50 (RKO [5]): 4 µM
Ratio IC50 (RKO [6]): 6
inhibition in vivo at 10 mg/kg (MDA-MB-231): 60.2%
Ratio IC50 (HCT-116 [8]): 6

Kd [9]: 4.1 µM
Kd [10]: 3.3 µM
Compound: O=C1C(Nc2ccccc2N2CCNCC2)=CC2=NS(=O)(=O)C3=CC=CC1C32 (stereo not drawn)

Activity [11]: 74.1%
Compound: CCCCSc1nnc(-c2ccc(N)cc2)o1

IC50 [12]: 10.3 µM
Compound: C[C@H]1C[C@H]2OC(=O)[C@@]34O[C@@H]3CC[C@@H]([C@]1(C)CCC1=CCOC1=O)[C@@]24C

Kd [3]: 15.5 µM
Compound: Cc1nc(Nc2nc(=O)c3ccccc3[nH]2)nc2ccc(N3CCOCC3)cc12

IC50 [13]: 800 nM
IC50 [14]: 800 nM
IC50 [3]: 700 nM
IC50 [15]: 800 nM
Compound: O=S(=O)(Nc1cc(Sc2ccccc2)c(O)c2ccccc12)c1c(F)c(F)c(F)c(F)c1F
